Measurements from patent US20240101569A1, “SALT CRYSTALS” (INTRA-CELLULAR THERAPIES, INC., priority 2021, published 2024).

Key:
[1] = Solubility study of free base crystalline and succinate salt crystalline forms (pH titration, chase equilibrium); format: physicochemical; conditions: water, thermodynamic from solid, aqueous, titration with UV-turbidity probe
From the text: The solubilities of free base crystalline and succinate salt crystalline forms of 2-(4-acetylbenzyl)-3-((4-fluorophenyl)amino)-5,7,7-trimethyl-7,8-dihydro-2H-imidazo[1,2-a]pyrazolo[4,3-e]pyrimidin-4(5H)-one are compared. Samples are titrated in water or in a minimum of three titrations under co-solvent conditions from the pH where the sample is fully dissolved. The sample precipitates from solution are detected by a UV-turbidity probe, which corresponds to a kinetic solubility. After precipitation, base and acid titrants are alternately added to drive the sample back and forth across the equilibrium solubility of the neutral species (the intrinsic solubility). At this point, the samples would exist in a supersaturated or subsaturated state (i.e. chase equilibrium). The intrinsic solubilities are determined from the pH between the supersaturated and subsaturated states corresponding to an intrinsic solubility. The samples can be determined by extrapolation to aqueous media, when co-solvent conditions are used.
This degree of aqueous solubility predicts faster dissolution rates in vitro and in vivo.

[2] = Pharmacokinetics study of succinate salt crystals in dogs; format: in vivo; conditions: 5 mg/kg orally, plasma; for DN AUC0-24 / DN Cmax: dose-normalised; for Cmax / Tmax / half-life / AUC(0-t): dog, po; for AUC(0-t): read-out: AUC0-24
Protocol: The succinate salt of 2-(4-acetylbenzyl)-3-((4-fluorophenyl)amino)-5,7,7-trimethyl-7,8-dihydro-2H-imidazo[1,2-a]pyrazolo[4,3-e]pyrimidin-4(5H)-one is administered to dogs at a dose of 5 mg/kg orally. A separate group of dogs is administered 2-(4-acetylbenzyl)-3-((4-fluorophenyl)amino)-5,7,7-trimethyl-7,8-dihydro-2H-imidazo[1,2-a]pyrazolo[4,3-e]pyrimidin-4(5H)-one free base 5 mg/kg orally. The analysis of drug concentration in plasma samples collected is analyzed.
The pharmacokinetic (PK) parameters are determined from the plasma concentration versus time data by non-compartmental methods with uniform weighting. The maximum observed concentration (Cmax) and the time of the maximum observed concentration (Tmax) are obtained from the bioanalytical raw data. The area-under-the-plasma concentration-time curve from time zero to the time of the last measurable sample (AUC) is calculated by the trapezoidal rule.

[3] = system: phosphodiesterase 1 (PDE 1); conditions: statement, no values; cited from earlier work
[4] = Solid-state properties of succinate salt crystals (stated in words); format: physicochemical

| Compound | solubility [1] [µg/mL] | DN AUC0-24 [2] | DN Cmax [2] | Cmax [2] [ng/mL] | Tmax [2] [h] | half-life [2] [h] | AUC(0-t) [2] [ng·h/mL] | PDE1 inhibition (in words) [3] | hygroscopicity [4] | solubility (in words) [4] | stability [4] |
| --- | --- | --- | --- | --- | --- | --- | --- | --- | --- | --- | --- |
| CC(=O)c1ccc(Cn2nc3c(c2Nc2ccc(F)cc2)C(=O)N(C)C2=NC(C)(C)CN23)cc1 [Free Base, 2-(4-acetylbenzyl)-3-((4-fluorophenyl)amino)-5,7,7-trimethyl-7,8-dihydro-2H-imidazo[1,2-a]pyrazolo[4,3-e]pyrimidin-4(5H)-one] | 285 | 304.6 [ng · hr/mL]/[mg/kg] | 41 [ng/mL]/[mg/kg] | 205 | 1.3 | 6.8 | 1520 | potent and selective | – | – | – |
| CC(=O)c1ccc(Cn2nc3c(c2Nc2ccc(F)cc2)C(=O)N(C)C2=NC(C)(C)CN23)cc1.O=C(O)CCC(=O)O [Succinate Salt, 2-(4-acetylbenzyl)-3-((4-fluorophenyl)amino)-5,7,7-trimethyl-7,8-dihydro-2H-imidazo[1,2-a]pyrazolo[4,3-e]pyrimidin-4(5H)-one succinate] | ~7000 | 331.9 [ng · hr/mL]/[mg/kg] | 123.8 [ng/mL]/[mg/kg] | 619 | 0.4 | 7 | 1660 | – | low hygroscopicity | good solubility | particularly stable |
